Measured values: patent publication US6355785B1, “Guanosine-rich oligonucleotide integrase inhibitors” (Aronex Pharmaceuticals, Inc., priority 1993, dated 2002)
Read-outs that look alike come from different tables or passages of the source.

Assays:
[1] = tested on: HIV-1 strains (SKI, RF, DV, IIIB, ADP/141); assay: microbe, parasite or virus in culture; type: cell-based
HIV-1IIIB = assay: Time of drug addition study, MT-4 cells (p24); type: cell-based; details: 100-fold IC50, MOI 1, p24 at 29 hour
HIV-1RF = assay: HeLa-CD4-LTR-β-galactosidase cell virus infection assay; type: cell-based; details: Human immunodeficiency virus 1; HIV-1RF; read-out: IC50 β-galactosidase production, virus infection assay
[2] = tested on: CD4- and gp120-mediated cell fusion; assay: cells; type: cell-based; details: HL2/3, read-out: IC50 CD4- and gp120-mediated cell fusion
HIV-1SKI = assay: Single cycle analysis of HIV-1 cDNA, CEM-SS cells; type: cell-based; details: 10- to 100-fold over IC50
HIV-1 strain DV = assay: HIV-1 induced syncytia formation assay in SUP T1 cells; type: cell-based
HIV-1DV = assay: HIV-1 p24 production in SUP T1 cells; type: cell-based
HIV-1 RT = HIV-1 RT (Human immunodeficiency virus type 1 group M subtype B, UniProt P04585); assay: In vitro inhibition of HIV-1 RT (kinetic analysis); type: biochemical; details: for IC50: read-out: ID50 (the source's name)
SUP T1 cells [3] = tested on: SUP T1 cells
[4] = biological target: HIV-1 gp120 interaction with CD4 (Human immunodeficiency virus type 1 group M subtype B, UniProt P04578)
HIV-2 (ROD, EHO) = assay: HIV-2 infection assay in MT4 cells; type: cell-based; details: read-out: IC50 virus production
SIVMAC251 = type: cell-based, simian immunodeficiency virus; details: SIVMAC251, MT4; read-out: IC50 virus production
[5] = tested on: Vesicular Stomatitis virus
Influenza A (H3N2) = Influenza A (H3N2) assay
[6] = biological target: recombinant HIV-1 integrase (wild-type) (Human immunodeficiency virus type 1 group M subtype B, UniProt P12497); assay: HIV-1 integrase 3′-processing and strand transfer assays; type: biochemical; design: Purified recombinant HIV-1 integrase enzyme (wild-type) was a generous gift from Dr. R. Craigie; purchased gift of Dr. R. Craigie, Laboratory of Molecular Biology, NIDDK (not bought)
Protocol: Integrase enzyme assays. Purified recombinant HIV-1 integrase enzyme (wild-type) was a generous gift from Dr. R. Craigie, Laboratory of Molecular Biology, National Institute of Diabetes and Digestive and Kidney Diseases. The enzyme (0.25 μM) was preincubated in reaction buffer at 20° C. for 30 minutes. All 3′-processing and strand-transfer reactions were performed as described previously by Fresen et al. (Fresen, et al., Proc. Natl. Acad. Sci. USA 90:2399-2403 (1993)) and Mazumder et al. (Mazumder, et al., Proc. Natl. Acad. Sci. USA 91:5771-5775 (1994)). Enzyme reactions were quenched by the addition of Maxam-Gilbert loading dye, and an aliquot was electrophoresed on a denaturing 20% polyacrylamide gel. Gels were then dried and subjected to autoradiography using Kodax XAR-2 film or exposed in a Molecular Dynamics Phospholmager cassette.
Integrase was preincubated at a final concentration of 200 (for HIV-1 and HIV-2) or 600 nM (for FIV and SIV) with inhibitor in reaction buffer (50 mM Nac1, 1 mM HEPES, pH 7.5, 50 μM dithiothreitol, 10% glycerol (wt/vol), 7.5 mM MnCl2 or MgCL2 (when specified), 0.1 mg/mL bovine serum albumin, 20 mM 2-mercaptoethanol, 10% dimethyl sulfoxide, and 25 mM MOPS, pH 7.2) at 30° C. for 30 minutes. When magnesium was used as the divalent metal ion, polyethylene glycol was added at a final concentration of 5% to increase activity as previously described (Engelman & Craigie, 1995). Preincubation for 30 minutes of the enzyme with inhibitor was performed to optimize increases the inhibitory activity in the 3′-processing reaction (Fesen et al., 1994). Then, 30 nM of the 5′-end ^32P-labeled linear oligonucleotide substrate was added, and incubation was continued for an additional 1 hr. The final reaction volume was 16 μL.
Electrophoresis and quantitation. Reactions were quenched by the addition of an equal volume […] of loading dye (98% deionized formamide, 10 mM EDTA, 0.025% xylene cyanol, 0.025% bromophenol blue). An aliquot (5 μL) was electrophoresed on a denaturing 20% polyacrylamide gel (0.09 M Tris-borate pH 8.3, 2 mM EDTA, 20% acrylamide, 8M urea). Gels were dried, exposed in a Molecular Dynamics Phosphorimager cassette, and analyzed using a Molecular Dynamics phosphorimager (Sunnyvale, Calif.). Percent inhibition was calculated using the following equation:
where C, N, and D are the fractions of 21mer substrate converted to 19mer (3′-processing product) or strand transfer products for DNA alone, DNA plus integrase, and integrase plus drug, respectively.
Antiviral assay. The RF laboratory strain of HIV-1 was used to infect established cell lines for one hour at 37° C. prior to washing and resuspension in medium containing increasing concentrations of drug. […] Purified recombinant HIV-1 integrase enzyme (wild-type) was a generous gift from Dr. Craigie, Laboratory of Molecular Biology, NIDDK. All 3′-processing and strand-transfers were performed as described previously by Fresen et al. (Fresen et al. (1993) Proc. Natl. Acad. Sci. VSA 90, 2399-2403) and Mazurnder et al. (Mazumder et al. (1994) Proc. Natl. Acad. Sci. USA 91, 5771-75).

SUP T1 cells [7] = assay: Cytotoxicity assay, CellTiter 96 (MTS), SUP T1 cells; details: read-out: TC50 (concentration reducing cell proliferation by 50%); SUP T1, dye (MTS) metabolism assay
[8] = Thermal denaturation of oligomer fold (UV, Tm); type: physicochemical
[9] = Oligomer folding by circular dichroism; details: KCl, 25° C., 20 mM Li3PO4
[10] = SUP T1, HIV-1 DV, read-out: IC50 in anti-HIV-1 syncytia formation assay
[11] = read-out: ID50 [CD4], oligo binding to immobilized CD4
[12] = read-out: ID50 [gp 120], oligo preincubated with soluble gp120

COc1cc(-c2ccc(/N=N/c3ccc4c(S(=O)(=O)O)cc(S(=O)(=O)O)c(N)c4c3O)c(OC)c2)ccc1/N=N/c1ccc2c(S(=O)(=O)O)cc(S(=O)(=O)O)c(N)c2c1O [CSB, Chicago sky blue] showed an IC50 ([1]; Human immunodeficiency virus 1, IIIB, CEM-SS, read-out: Antiviral Assay IC50 IIIB, HIV-1 IIIB, CEM-SS or MT4) of 0.6 µM, an IC50 ([1]; Human immunodeficiency virus 1, IIIB, CEM-SS, read-out: Antiviral Assay IC50 RF, HIV-1 RF, CEM-SS or MT4) of 1.7 µM and an IC50 ([1]; Human immunodeficiency virus 1, IIIB, CEM-SS, read-out: Antiviral Assay IC50 SKI, HIV-1 SKI, CEM-SS or MT4) of 1.6 µM. The “delay of drug addition post-infection at which inhibitory effect is lost” value (HIV-1IIIB) was “one hour post-virus infection”, the IC50 (HIV-1RF) was 0.26 µM and the IC50 [2] was 0.8 µM. The “viral cDNA 12 hours post-infection, drug added at time of infection” value (HIV-1SKI) was “no detectable viral DNA”.

With “5′-gtggtgggtgggtgggtggtgggtggtggttgtgggtgggtggtg-3′ [I100-07]” the IC50 (HIV-1 strain DV; SUP T1, HIV-1DV, four days, read-out: IC50 Syn (syncytium inhibition)) was 0.25 µM, the IC50 (HIV-1 strain DV; [10]) was 0.25 µM and the “Percent p24 relative to infected untreated control, Day 7” value (HIV-1DV; 2.5 uM, drug removed day 4) was 15.9%. For the same molecule, the “Percent p24 relative to infected untreated control, Day 11” value (HIV-1DV; 2.5 uM, drug removed day 4) was 8.6%, the “Percent p24 relative to infected untreated control, Day 4” value (HIV-1DV; 2.5 uM, medium replaced day 4) was 6.0% and the IC50 (HIV-1DV; SUP T1, HIV-1DV, four days) was 0.55 µM. It also gave a Ki (HIV-1 RT) of 0.137 µM, an IC50 (HIV-1 RT) of 2.5 µM and a CC50 (SUP T1 cells [3]) of over 50 µM. The “inhibition of detection of immobilized gp120 by HRP-α-gp120 antibody” value ([4]; control experiment) was “did not inhibit”, the IC50 [4, 11] was 4.25 µM and the IC50 [4, 12] was 0.8 µM.

“Dextran sulfate [DS5000, reference compound]” gave an IC50 ([1]; HIV-1 ADP/141 (AZT resistant), MT4, read-out: IC50 virus production) of 0.032 ± 0.008 µM, an IC50 ([1]; HIV-1 IIIB, CEM-SS or MT4, read-out: Antiviral Assay IC50 IIIB) of 0.031 µM and an IC50 ([1]; HIV-1 IIIB, MT4, read-out: IC50 virus production) of 0.034 ± 0.016 µM. The IC50 ([1]; HIV-1 RF, CEM-SS or MT4, read-out: Antiviral Assay IC50 RF) was 0.016 µM, the IC50 ([1]; HIV-1 RF, MT4, read-out: IC50 virus production) was 0.018 ± 0.02 µM and the IC50 (HIV-2 (ROD, EHO); HIV-2EHO) was 0.084 ± 0.086 µM. It also gave an IC50 (HIV-2 (ROD, EHO); HIV-2ROD) of 0.082 ± 0.088 µM, an IC50 (SIVMAC251) of 0.548 ± 0.48 µM and an IC50 virus-induced cytopathogenicity (HSV-1; HSV-1 (KOS)) of 2 mg/L. The “MCC minimum concentration altering normal cell morphology” value (HSV-1; HSV-1 (KOS) assay) was over 400 μg/mL, the IC50 virus-induced cytopathogenicity (HSV-1; HSV-1 TK (B2006)) was 2 mg/L and the “MCC minimum concentration altering normal cell morphology” value (HSV-1; HSV-1 TK (B2006) assay) was over 400 μg/mL. The IC50 virus-induced cytopathogenicity (HSV-1; HSV-1 TK (VMW1837)) was 2 mg/L, the “MCC minimum concentration altering normal cell morphology” value (HSV-1; HSV-1 TK (VMW1837) assay) was over 400 μg/mL and the IC50 virus-induced cytopathogenicity (HSV-2 (G); HSV-2 (G)) was 2 mg/L. The “MCC minimum concentration altering normal cell morphology” value (HSV-2 (G); HSV-2 (G) assay) was over 400 μg/mL, the IC50 virus-induced cytopathogenicity (Sindbis virus; Sindbis virus) was 10 mg/L and the “MCC minimum concentration altering normal cell morphology” value (Sindbis virus; Sindbis virus assay) was over 400 μg/mL. The IC50 virus-induced cytopathogenicity (Semliki forest virus; Semliki forest virus) was over 400 mg/L, the “MCC minimum concentration altering normal cell morphology” value (Semliki forest virus; Semliki forest virus assay) was over 400 μg/mL and the IC50 virus-induced cytopathogenicity [5] was 20 mg/L. For the same molecule, the “MCC minimum concentration altering normal cell morphology” value [5] was over 400 μg/mL, the IC50 virus-induced cytopathogenicity (Vaccinia virus) was over 400 mg/L and the “MCC minimum concentration altering normal cell morphology” value (Vaccinia virus) was over 400 μg/mL. The IC50 virus-induced cytopathogenicity (Punta Toro virus; Punta Toro virus) was 10.9 mg/L, the “MCC minimum concentration altering normal cell morphology” value (Punta Toro virus; Punta Toro virus assay) was over 400 μg/mL and the IC50 virus-induced cytopathogenicity (Yellow Fever virus) was 26 mg/L. For the same molecule, the “MCC minimum concentration altering normal cell morphology” value (Yellow Fever virus) was over 200 μg/mL, the IC50 virus-induced cytopathogenicity (RSV (A2); RSV (A2)) was 4 mg/L and the “MCC minimum concentration altering normal cell morphology” value (RSV (A2); RSV (A2) assay) was over 200 μg/mL. For the same molecule, the “MCC minimum concentration altering normal cell morphology” value (Influenza A (H3N2)) was over 400 μg/mL, the IC50 virus-induced cytopathogenicity (Junin virus) was 13 mg/L and the “MCC minimum concentration altering normal cell morphology” value (Junin virus) was over 200 μg/mL. The IC50 virus-induced cytopathogenicity (Tacaribe) was 13.5 mg/L, the “MCC minimum concentration altering normal cell morphology” value (Tacaribe) was over 200 μg/mL and the IC50 virus-induced cytopathogenicity (Coxsackie virus (B4); Coxsackie virus (B4)) was over 400 mg/L. The “MCC minimum concentration altering normal cell morphology” value (Coxsackie virus (B4); Coxsackie virus (B4) assay) was over 400 μg/mL, the IC50 virus-induced cytopathogenicity (Polio virus-1) was over 400 mg/L and the “MCC minimum concentration altering normal cell morphology” value (Polio virus-1) was over 400 μg/mL. It also gave an IC50 ([6]; 3′-processing, read-out: Anti-Integrase Assay IC50 3′-proc) of 0.07 µM and an IC50 ([6]; strand transfer, read-out: Anti-Integrase Assay IC50 strand tran.) of 0.06 µM.

With “5′-gttgggggttgttggtggggtggtgg-3′ [I100-00] (DNA GTTGGGGGTTGTTGGTGGGGTGGTGG; phosphorodiamidate backbone, further chemistry not given here)” the IC50 (HIV-1 strain DV; [10]) was 3.75 µM, the Ki (HIV-1 RT) was 0.37 µM and the IC50 (HIV-1 RT) was 5 µM. It also gave an IC50 [4, 11] of 18 µM, an IC50 [4, 12] of 3.5 µM and a CC50 (SUP T1 cells [7]) of 37 µM.

Molecule “5′-gtggtgggtgtggtgggt-3′ (GTGGTGGGTGTGGTGGGT; phosphorothioate termini, further chemistry not given here) [T30676, pPT variant T30177]” has an IC50 ([1]; anti-HIV-1 virus production, read-out: Cell Culture IC50) of 1 µM, an IC50 ([1]; cell culture, read-out: IC50 HIV-1RF) of 1 µM and a Tm ([8]; 1 mM KCl) of 33 °C. For the same molecule, the Tm ([8]; 10 mM KCl) was 46 °C, the Tm ([8]; 180 mM KCl) was 65 °C and the “midpoint of K+ induced folding transition (CD, 264 nm)” value [9] was 0.27 mM. It also gave an IC50 ([6]; read-out: Enzyme IC50 3-′process) of 0.134 µM and an IC50 ([6]; read-out: IC50 STR · TRA) of 0.134 ± 0.016 µM.
